Laboratory results taken from patent US20260159512A1, “BCAT2 INHIBITORS” (AGIOS PHARMACEUTICALS, INC., priority 2021, published 2026).
Values joined by “and” are separate entries in the source; they are usually repeats but may differ in a detail not shown here. Equal entries are not always repeated.

How the values were obtained:
Details in all cases: average where tested multiple times
BCAT2 [1] = target: T1, BCAT2 (Homo sapiens, UniProt O15382); experiment: BCAT2 in vitro enzyme inhibition assay (resazurin/diaphorase-coupled fluorescence); format: biochemical
T1 sequence (O15382 28-392): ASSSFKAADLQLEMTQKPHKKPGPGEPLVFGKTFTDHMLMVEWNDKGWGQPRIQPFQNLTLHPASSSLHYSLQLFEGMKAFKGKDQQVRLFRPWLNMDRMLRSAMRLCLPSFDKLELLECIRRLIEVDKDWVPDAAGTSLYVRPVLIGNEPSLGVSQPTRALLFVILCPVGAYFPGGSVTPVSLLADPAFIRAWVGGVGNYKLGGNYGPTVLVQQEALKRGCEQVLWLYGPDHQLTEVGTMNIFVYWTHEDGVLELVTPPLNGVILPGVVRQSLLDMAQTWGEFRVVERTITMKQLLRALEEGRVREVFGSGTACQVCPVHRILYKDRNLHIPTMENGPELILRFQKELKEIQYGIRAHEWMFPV
Summary of the method: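 Coupled fluorescence readout: glutamate formed from L-leucine/α-ketoglutarate transamination drives GDH/NAD/diaphorase reduction of resazurin (Ex 540/Em 590). Human BCAT2 was first exposed 1 h at room temperature to compound, top final 100 μM in 3-fold, 10-point series; substrate reaction ran 1 h before SDS quench, in technical duplicate with DMSO max and enzyme-free min controls.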

BCAT2 [2] = target: T1, BCAT2; experiment: BCAT2 in vitro cell inhibition using engineered A549 cells (KMV cell assay, 13C6-KMV by LC-MS/MS); format: cell-based; set-up: The result was an engineered A549 cell line that expressed endogenous BCAT2; endogenous in cells; host or cells: A549 cells with MUT and BCAT1 knocked out by CRISPR/CAS9
hBCAT1 = target: T2, hBCAT1 (Homo sapiens, UniProt P54687); experiment: BCAT1 in vitro enzyme inhibition assay (resazurin/diaphorase-coupled fluorescence); format: biochemical
T2 sequence (P54687 1-386): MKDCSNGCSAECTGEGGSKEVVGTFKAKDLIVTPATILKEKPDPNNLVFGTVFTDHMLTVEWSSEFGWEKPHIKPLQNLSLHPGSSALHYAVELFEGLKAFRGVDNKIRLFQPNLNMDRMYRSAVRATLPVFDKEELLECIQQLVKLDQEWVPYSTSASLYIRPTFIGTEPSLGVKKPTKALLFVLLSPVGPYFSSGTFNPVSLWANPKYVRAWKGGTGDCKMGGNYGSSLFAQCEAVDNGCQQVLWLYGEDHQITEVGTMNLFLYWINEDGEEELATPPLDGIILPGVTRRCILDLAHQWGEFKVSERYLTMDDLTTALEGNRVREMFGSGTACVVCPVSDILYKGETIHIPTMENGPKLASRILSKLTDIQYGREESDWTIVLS
Summary of the method: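 Ten-point, 3-fold compound series (top final 100 μM, delivered 1:50 from 50× DMSO stocks) tested against hBCAT1. Inhibition detected via diaphorase-coupled resazurin fluorescence, duplicate wells, with values from repeated runs averaged.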

Row | IC50 (BCAT2 [1]) [nM] | IC50 (BCAT2 [2]) [nM] | IC50 (hBCAT1) | Structure (SMILES)
1 | 100 to 500 | > 1000 | 1000 to 5000 nM | CN1C[C@@H](NC(=O)c2ncc(Cl)s2)C[C@@H](n2c(-c3ccccc3F)nc3cnc(-c4nc[nH]n4)cc32)C1 (single isomer, unassigned) [Example 133]
2 | ≤ 100 | 500 to 1000 | 1000 to 5000 nM | CNC(=O)c1cc2nc(CC(C)C)n([C@@H]3CCC[C@H](NC(=O)c4ncc(Cl)s4)[C@H]3O)c2cn1 (single isomer, unassigned) [Example 280]
3 | ≤ 100 | ≤ 100 | < 500 nM | CC(=O)N1CC(NC(=O)c2ccc(Br)s2)CC(n2c(-c3ccccc3F)nc3cnc(-c4ncco4)cc32)C1 (stereo not drawn) [Example 118, N-(1-acetyl-5-(2-(2-fluorophenyl)-6-(oxazol-2-yl)-1H-imidazo[4,5-c]pyridin-1-yl)piperidin-3-yl)-5-bromothiophene-2-carboxamide]
4 | ≤ 100 | 100 to 500 | < 500 nM | CC(C)[C@H](N)c1nc2cnc(-c3ccccn3)cc2n1[C@@H]1CCC[C@H](NC(=O)c2ncc(Cl)s2)C1 [Example 166, N-((1S,3R)-3-(2-((S)-1-amino-2-methylpropyl)-6-(pyridin-2-yl)-1H-imidazo[4,5-c]pyridin-1-yl)cyclohexyl)-5-chlorothiazole-2-carboxamide]
5 | ≤ 100 | ≤ 100 | < 500 nM | COc1cccc(F)c1-c1nc2cnc(-c3nc[nH]n3)cc2n1[C@@H]1CCC[C@H](NC(=O)c2ccc(Cl)s2)C1 [Example 347, 5-chloro-N-((1S,3R)-3-(2-(2-fluoro-6-methoxyphenyl)-6-(1H-1,2,4-triazol-3-yl)-1H-imidazo[4,5-c]pyridin-1-yl)cyclohexyl)thiophene-2-carboxamide]
6 | 100 to 500 | > 1000 | > 5000 nM | O=C(N[C@H]1CCC[C@@H](n2c(-c3ncccc3F)nc3cnc(-n4ccnn4)nc32)C1)c1ncc(C(F)F)s1 [Example 59, 5-(difluoromethyl)-N-((1S,3R)-3-(8-(3-fluoropyridin-2-yl)-2-(1H-1,2,3-triazol-1-yl)-9H-purin-9-yl)cyclohexyl)thiazole-2-carboxamide]
7 | ≤ 100 | 500 to 1000 | 500 to 1000 nM | O=C(N[C@H]1C[C@H](O)C[C@@H](n2c(-c3ccccc3F)nc3cnccc32)C1)c1ncc(Cl)s1 [Example 272, 5-chloro-N-((1R,3S,5S)-3-(2-(2-fluorophenyl)-1H-imidazo[4,5-c]pyridin-1-yl)-5-hydroxycyclohexyl)thiazole-2-carboxamide]
8 | ≤ 100 | ≤ 100 | < 500 nM | CN1C[C@H](NC(=O)c2ccc(Cl)s2)C[C@H](n2c(-c3ccccc3F)nc3cnc(-c4nc[nH]n4)cc32)C1 [Example 264, 5-chloro-N-((3R,5S)-5-(2-(2-fluorophenyl)-6-(1H-1,2,4-triazol-3-yl)-1H-imidazo[4,5-c]pyridin-1-yl)-1-methylpiperidin-3-yl)thiophene-2-carboxamide]
9 | ≤ 100 | ≤ 100 | < 500 nM | O=C(N[C@H]1CCCN(n2c(-c3ccccc3F)nc3cnc(-c4nc[nH]n4)cc32)C1)c1ncc(Cl)s1 [Example 364, (S)-5-chloro-N-(1-(2-(2-fluorophenyl)-6-(1H-1,2,4-triazol-3-yl)-1H-imidazo[4,5-c]pyridin-1-yl)piperidin-3-yl)thiazole-2-carboxamide]
10 | 100 to 500 | > 1000 | > 5000 nM | CC(Oc1nc2cnc(-n3nccn3)cc2n1[C@@H]1CCC[C@H](NC(=O)c2ncc(C(F)F)s2)C1)C(F)(F)F (stereo partly drawn) [Example 98, N-((1S,3R)-3-(6-(2H-1,2,3-triazol-2-yl)-2-((1,1,1-trifluoropropan-2-yl)oxy)-1H-imidazo[4,5-c]pyridin-1-yl)cyclohexyl)-5-(difluoromethyl)thiazole-2-carboxamide]
11 | ≤ 100 | 100 to 500 | < 500 nM | CC(C)[C@@H](O)c1nc2cnc(-c3ccccn3)cc2n1[C@@H]1CCC[C@H](NC(=O)c2ncc(Cl)s2)C1 [Example 305, 5-chloro-N-((1S,3R)-3-(2-((R)-1-hydroxy-2-methylpropyl)-6-(pyridin-2-yl)-1H-imidazo[4,5-c]pyridin-1-yl)cyclohexyl)thiazole-2-carboxamide]
12 | ≤ 100 | ≤ 100 | < 500 nM | O=C(N[C@H]1CCC[C@@H](n2c(-c3ccccc3F)nc3cnc(-c4noc(=O)[nH]4)cc32)C1)c1ncc(Cl)s1 [Example 202, 5-chloro-N-((1S,3R)-3-(2-(2-fluorophenyl)-6-(5-oxo-4,5-dihydro-1,2,4-oxadiazol-3-yl)-1H-imidazo[4,5-c]pyridin-1-yl)cyclohexyl)thiazole-2-carboxamide]
13 | ≤ 100 | 500 to 1000 | < 500 nM | CC(C)[C@@H](O)c1nc2cnc(-c3ncccn3)cc2n1[C@@H]1CCC[C@H](NC(=O)c2ncc(Cl)s2)C1 [Example 172, 5-chloro-N-((1S,3R)-3-(2-((R)-1-hydroxy-2-methylpropyl)-6-(pyrimidin-2-yl)-1H-imidazo[4,5-c]pyridin-1-yl)cyclohexyl)thiazole-2-carboxamide]
14 | ≤ 100 | ≤ 100 | < 500 nM | O=C(NC1CC(O)CC(n2c(-c3ccccc3F)nc3cnc(-c4nnc[nH]4)cc32)C1)c1ncc(Cl)s1 (stereo not drawn) [Example 115, 5-chloro-N-(3-(2-(2-fluorophenyl)-6-(4H-1,2,4-triazol-3-yl)-1H-imidazo[4,5-c]pyridin-1-yl)-5-hydroxycyclohexyl)thiazole-2-carboxamide]
15 | ≤ 100 | 500 to 1000 | 500 to 1000 nM | CC(C)Cc1nc2cnc(-c3ncon3)cc2n1[C@@H]1CCC[C@H](NC(=O)c2ncc(Cl)s2)C1 [Example 321, 5-chloro-N-((1S,3R)-3-(2-isobutyl-6-(1,2,4-oxadiazol-3-yl)-1H-imidazo[4,5-c]pyridin-1-yl)cyclohexyl)thiazole-2-carboxamide]
16 | ≤ 100 | ≤ 100 | < 500 nM | COc1cccc(-c2cc3c(cn2)nc(-c2ccccc2F)n3[C@@H]2CCC[C@H](NC(=O)c3ncc(Cl)s3)C2)n1 [Example 179, 5-chloro-N-((1S,3R)-3-(2-(2-fluorophenyl)-6-(6-methoxypyridin-2-yl)-1H-imidazo[4,5-c]pyridin-1-yl)cyclohexyl)thiazole-2-carboxamide]
17 | ≤ 100 | > 1000 | 1000 to 5000 nM and > 5000 nM | CC(=O)N1CC(NC(=O)c2ncc(C(F)F)s2)CC(n2c(-c3ncccc3F)nc3cnc(-n4ccnn4)cc32)C1 (stereo not drawn) [Example 120, N-(1-acetyl-5-(2-(3-fluoropyridin-2-yl)-6-(1H-1,2,3-triazol-1-yl)-1H-imidazo[4,5-c]pyridin-1-yl)piperidin-3-yl)-5-(difluoromethyl)thiazole-2-carboxamide]
18 | ≤ 100 | ≤ 100 | < 500 nM | O=C(N[C@H]1C[C@H](O)C[C@@H](n2c(-c3ccccc3F)nc3cnc(-c4ncco4)cc32)C1)c1ncc(Cl)s1 [Example 260, 5-chloro-N-((1R,3S,5S)-3-(2-(2-fluorophenyl)-6-(oxazol-2-yl)-1H-imidazo[4,5-c]pyridin-1-yl)-5-hydroxycyclohexyl)thiazole-2-carboxamide]
19 | ≤ 100 | ≤ 100 | < 500 nM | O=C(N[C@H]1CCC[C@@H](n2c(-c3ccccc3F)nc3cnc(-c4ncccn4)cc32)C1)c1ncc(Cl)s1 [Example 185, 5-chloro-N-((1S,3R)-3-(2-(2-fluorophenyl)-6-(pyrimidin-2-yl)-1H-imidazo[4,5-c]pyridin-1-yl)cyclohexyl)thiazole-2-carboxamide]
20 | ≤ 100 | 100 to 500 | 500 to 1000 nM | O=C(N[C@H]1CCC[C@@H](n2c(C3CCCOC3)nc3cnc(-c4nc[nH]n4)cc32)C1)c1ncc(Cl)s1 (single isomer, unassigned) [Example 103]
